Assay results as given in patent US20220118104A1, “COMPOUNDS COMPRISING CLEAVABLE LINKER AND USES THEREOF” (IntoCell, Inc., priority 2019, published 2022).

Assays:
E. coli β-galactosidase = target: T1, E. coli β-galactosidase (Escherichia coli, UniProt P00722); assay: in vitro; format: biochemical; conditions: PBS pH 7.4, 37° C., HPLC, read-out: TG release t1/2(min)
T1 construct: purchased Sigma G4155
Method: Compound A-1, A-2, or B-1 was dissolved in DMSO and mixed with PBS buffer solution to prepare 500 μM stock solution (1% DMSO). Methyl phenyl sulfone (MPS, CAS Number 3112-85-4, internal standard) was dissolved in PBS buffer solution to make 500 μM solution. 790 μL of PBS buffer (pH 7.4), 10 μL of the solution of compound A-1, A-2, or B-1 (500 μM) and 200 μL of MPS solution (500 μM) were mixed. Enzyme solution (E. coli β-galactosidase, Sigma G4155, 18 μL of 1 mg/mL) was added to 882 μL of the reaction mixture. When comparing with human p-galactosidase, 116 μL of the enzyme solution (0.1 mg/mL) was added, and solutions of compound A-1, A-2, or B-1 (140 μL), MPS (140 μL), and the buffer solution (533 μL, pH 7.4) were mixed.
The reaction mixture was incubated at 37° C. The enzyme reaction solution was aliquoted at 0 min before the reaction and at a predetermined time after the reaction, wherein each aliquot was 70 μL. The remaining compound A-1, A-2, or B-1, MPS, and the material liberated by the enzyme reaction were quantitatively analyzed by HPLC.

SK-BR3 cancer cells = assay: Cell cytotoxicity of conjugates (MTT), SK-BR3; format: cell-based; conditions: SK-BR3, 72 hours of incubation
Method: (§1) NCI-N87, SK-BR3 cancer cells were seeded in 96-well plates at a density of 5,000 cells per well in 100 μL of medium, and cultured for 24 hours. The eight compounds obtained in Example 55 and T-DM1 were treated by serial dilutions of 1:5 from 50 nM to 0.000128 nM. After 72 hours of incubation, 0.2 mL of 3-(4,5-dimethylthiazol-2-yl)-2,5-diphenyltetrazolium bromide (MTT) dye, dissolved in PBS buffer solution (5 mg/mL), was added to each well of the plates. The formazans formed by reduction of the MTT dye by mitochondrial oxidoreductases in the living cells were dissolved in DMSO, and measured using the absorbance at 550 nm.

NCI-N87 cancer cells = assay: Cell cytotoxicity of conjugates (MTT), NCI-N87; format: cell-based; conditions: NCI-N87, 72 hours of incubation
Method: as §1

T1 sequence (P00722 2-1024): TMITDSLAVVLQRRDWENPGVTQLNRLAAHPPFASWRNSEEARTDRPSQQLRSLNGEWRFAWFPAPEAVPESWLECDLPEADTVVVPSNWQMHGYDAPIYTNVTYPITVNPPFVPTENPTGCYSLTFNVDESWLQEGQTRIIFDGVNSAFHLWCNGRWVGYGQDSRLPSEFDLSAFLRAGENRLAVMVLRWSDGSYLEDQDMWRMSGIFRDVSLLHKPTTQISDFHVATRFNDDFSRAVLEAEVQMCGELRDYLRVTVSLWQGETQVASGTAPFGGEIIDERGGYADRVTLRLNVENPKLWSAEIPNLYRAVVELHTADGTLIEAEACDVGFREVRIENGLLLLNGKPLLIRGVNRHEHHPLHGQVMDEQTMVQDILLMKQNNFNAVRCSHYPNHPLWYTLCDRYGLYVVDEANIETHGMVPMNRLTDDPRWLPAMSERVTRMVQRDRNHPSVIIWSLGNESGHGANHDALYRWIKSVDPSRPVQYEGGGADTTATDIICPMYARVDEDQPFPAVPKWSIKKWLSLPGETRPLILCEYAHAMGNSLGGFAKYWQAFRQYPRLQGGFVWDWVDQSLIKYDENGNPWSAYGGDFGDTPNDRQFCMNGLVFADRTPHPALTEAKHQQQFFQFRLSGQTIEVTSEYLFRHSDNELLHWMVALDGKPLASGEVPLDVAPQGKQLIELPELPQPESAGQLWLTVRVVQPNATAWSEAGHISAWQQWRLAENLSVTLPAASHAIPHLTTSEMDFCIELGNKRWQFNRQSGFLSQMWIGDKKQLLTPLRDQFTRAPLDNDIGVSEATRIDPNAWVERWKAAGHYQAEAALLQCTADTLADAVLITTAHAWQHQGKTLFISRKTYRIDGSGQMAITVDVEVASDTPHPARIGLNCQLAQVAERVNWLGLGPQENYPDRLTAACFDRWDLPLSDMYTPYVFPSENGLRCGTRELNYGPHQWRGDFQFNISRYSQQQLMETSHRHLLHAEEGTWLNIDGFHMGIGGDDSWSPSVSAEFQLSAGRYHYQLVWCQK

## CNC(=O)[C@H](Cc1ccc(OS(=O)(=O)Cc2ccc(OC3O[C@H](CO)[C@H](O)[C@H](O)[C@H]3O)c(C(=O)NCCOCCOCCOCCN=[N+]=[N-])c2)cc1)NC(=O)OC(C)(C)C (some centres unmarked) [Compound A-2]
E. coli β-galactosidase
  half-life at 4.9 μM: < 10 min

## T-DM1
SK-BR3 cancer cells
  IC50: 0.042 nM
NCI-N87 cancer cells
  IC50: 0.766 nM

## C[N+]1(Cc2ccc(OS(=O)(=O)Cc3ccc(OC4O[C@H](CO)[C@H](O)[C@H](O)[C@H]4O)cc3)cc2)CCCC[C@@H]1C(=O)Nc1ccccc1 (some centres unmarked) [Compound B-1]
E. coli β-galactosidase
  half-life at 4.9 μM: < 5 min

## CNC(=O)[C@H](Cc1ccc(OS(=O)(=O)Cc2ccc(OC3O[C@H](CO)[C@H](O)[C@H](O)[C@H]3O)cc2)cc1)NC(=O)OC(C)(C)C (some centres unmarked) [Compound A-1]
E. coli β-galactosidase
  half-life at 4.9 μM: < 5 min
